Test results from PubChem BioAssay (NCI).
“And” between values parts separate entries of the source, which are not always exact repeats. Identical values can stand only once.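 Cells were grown in 96-well plates and exposed to each compound for 48 hours at five concentrations; endpoints were interpolated linearly between bracketing concentrations, or set to the highest concentration if not reached. Here, GI50 denotes the concentration required for 50% inhibition of growth. TGI is the concentration that stops growth completely.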

Assays:
Experiment in all cases: NCI-60 cell line screen, 48 h
[1] = system: RXF 393 renal
[2] = system: BT-549 breast
[3] = system: SK-MEL-28 melanoma
[4] = system: HL-60(TB) leukemia
[5] = system: SNB-19 CNS
[6] = system: RPMI-8226 leukemia
[7] = system: UACC-257 melanoma
[8] = system: HCC-2998 colon
[9] = system: HCT-15 colon
[10] = system: SR leukemia

## CC1=C[C@H]2c3c(c(O)c(O)c4oc5cc(O)cc(O)c5c(=O)c34)[C@H](c3cc(O)c(O)c4oc5cc(O)cc(O)c5c(=O)c34)[C@H]2C(C)(C)C1
[1]
  GI50: 1.76 µM
  TGI: 4.3 µM and 4.04 µM
[2]
  GI50: 0.664 µM and 1.87 µM
  TGI: 8.48 µM and 6.24 µM
[3]
  GI50: 1.5 µM and 1.76 µM
  TGI: 3.44 µM and 4.28 µM
[4]
  GI50: 2.04 µM and 2.1 µM
  TGI: 5.72 µM and 10.6 µM
[5]
  GI50: 1.33 µM and 1.3 µM
  TGI: 3.31 µM and 4.93 µM
[6]
  GI50: 0.915 µM and 0.392 µM
  TGI: 4.57 µM and 2.04 µM
[7]
  GI50: 3.02 µM and 4.3 µM
  TGI: 9.78 µM and 21.6 µM
[8]
  GI50: 1.91 µM and 2.5 µM
  TGI: 3.78 µM and 10 µM
[9]
  GI50: 2.75 µM and 1.62 µM
  TGI: 16.4 µM and 14 µM

## Cc1cc(C)cc(Nc2nccc(-c3c(-c4ccc(F)cc4)ncn3C3CCNCC3)n2)c1
[1]
  GI50: 1.39 µM
  TGI: 2.92 µM
[2]
  GI50: 1.52 µM
  TGI: 3.11 µM
[3]
  GI50: 1.78 µM
  TGI: 3.26 µM
[10]
  GI50: 1.01 µM
  TGI: 3.61 µM
[4]
  GI50: 1.6 µM
  TGI: 3.68 µM
[5]
  GI50: 1.68 µM
  TGI: 3.71 µM
[6]
  GI50: 2.07 µM
  TGI: 5.18 µM
[7]
  GI50: 2.09 µM
  TGI: 4.17 µM
[8]
  GI50: 1.28 µM
  TGI: 2.64 µM
[9]
  GI50: 1.15 µM
  TGI: 2.85 µM

## COc1ccc(S(=O)(=O)O)cc1NS(=O)(=O)c1ccc(C)cc1
[2]
  TGI: > 100 µM
[3]
  TGI: > 100 µM
[10]
  TGI: > 100 µM
[4]
  TGI: > 100 µM
[5]
  TGI: > 100 µM
[6]
  TGI: > 100 µM
[7]
  TGI: > 100 µM
[9]
  TGI: > 100 µM

## COc1cc(Nc2ncc3c(n2)-c2ccc(Cl)cc2C(c2c(F)cccc2OC)=NC3)ccc1C(=O)O
[1]
  GI50: 1.59 µM
  TGI: 13.1 µM
[2]
  GI50: 5.88 µM
  TGI: > 81.1 µM
[3]
  GI50: 13.2 µM
  TGI: > 92 µM
[4]
  GI50: 16.5 µM
  TGI: > 68 µM
[5]
  GI50: 13.3 µM
  TGI: > 100 µM
[6]
  GI50: 12 µM
  TGI: > 65 µM
[7]
  GI50: 18.2 µM
  TGI: > 92.5 µM
[8]
  GI50: 19.2 µM
  TGI: > 100 µM
[9]
  GI50: 4.77 µM
  TGI: > 100 µM

## COc1cc(C(=O)/C=C/c2c(-c3ccc(F)cc3)nc3sccn23)cc(OC)c1OC
[1]
  GI50: 0.945 µM
  TGI: 4.23 µM
[2]
  GI50: 0.342 µM
  TGI: 12.5 µM
[3]
  GI50: 4.84 µM
  TGI: 17.2 µM
[10]
  GI50: 1.41 µM
  TGI: 5.09 µM
[4]
  GI50: 1.61 µM
  TGI: 4.19 µM
[5]
  GI50: 3.37 µM
  TGI: 27.8 µM
[6]
  GI50: 2.59 µM
  TGI: 44.6 µM
[7]
  GI50: 14.1 µM
  TGI: 33.7 µM
[8]
  GI50: 2.03 µM
  TGI: 3.99 µM
[9]
  GI50: 2.87 µM
  TGI: 13.1 µM

## C/C1=C\CC[C@@](C)(O)[C@H]2C[C@H](CC/C(C)=C/CC1)C1(CC1)C(=O)O2
[1]
  GI50: 18.4 µM
  TGI: 42.8 µM
[2]
  GI50: 23.7 µM
  TGI: 55.7 µM
[3]
  GI50: 45.3 µM
  TGI: > 100 µM
[10]
  GI50: 14.1 µM
  TGI: 32.6 µM
[5]
  GI50: 85.6 µM
  TGI: > 100 µM
[6]
  GI50: 14.2 µM
  TGI: 35.8 µM
[7]
  GI50: 19.4 µM
  TGI: 67.2 µM
[8]
  GI50: 18 µM
  TGI: 35.2 µM
[9]
  GI50: 17.6 µM
  TGI: 36.8 µM

## O=C(c1ccc(O)cc1)c1ccc(C(=O)c2ccc(O)cc2)cc1
[1]
  GI50: 26.5 µM
  TGI: 98.3 µM
[2]
  GI50: 94 µM
  TGI: > 100 µM
[3]
  GI50: > 100 µM
  TGI: > 100 µM
[10]
  GI50: > 100 µM
  TGI: > 100 µM
[4]
  GI50: > 100 µM
  TGI: > 100 µM
[5]
  GI50: 71.1 µM
  TGI: > 100 µM
[6]
  GI50: 5.21 µM
  TGI: > 100 µM
[7]
  GI50: > 100 µM
  TGI: > 100 µM
[8]
  GI50: > 100 µM
  TGI: > 100 µM
[9]
  GI50: > 100 µM
  TGI: > 100 µM

## COc1cc2c(cc1OCCCCC(=O)Nc1ccc(-c3nc4ccccc4s3)cc1)N=C[C@@H]1CCCN1C2=O
[1]
  GI50: 1.61 µM
  TGI: 3.05 µM
[2]
  GI50: 1.13 µM
  TGI: 2.36 µM
[3]
  GI50: 2.23 µM
  TGI: 5.81 µM
[10]
  GI50: 0.548 µM
  TGI: 9.48 µM
[4]
  GI50: 1.77 µM
  TGI: 6.31 µM
[5]
  GI50: 2.68 µM
  TGI: 11.2 µM
[6]
  GI50: 1.45 µM
  TGI: 3.96 µM
[7]
  GI50: 1.73 µM
  TGI: 3.81 µM
[8]
  GI50: 1.58 µM
  TGI: 3.23 µM
[9]
  GI50: 2.85 µM
  TGI: 9.81 µM

## CC(=O)OC1CCC2(C)C(CCC3C2CCC2(C)C(C4=CC(=O)OC4)CCC32)C1 (stereo unspecified)
[1]
  GI50: 8.73 µM
  TGI: 28.7 µM
[2]
  GI50: 4.19 µM
  TGI: 25.4 µM
[3]
  GI50: 4.75 µM
  TGI: 22 µM
[10]
  GI50: 0.468 µM
  TGI: 10.9 µM
[4]
  GI50: 7.9 µM
  TGI: 30.7 µM
[5]
  GI50: 8.49 µM
  TGI: 38.4 µM
[6]
  GI50: 0.928 µM
  TGI: 3.03 µM
[8]
  GI50: 23.8 µM
  TGI: > 100 µM
[9]
  GI50: 16.2 µM
  TGI: > 100 µM

## Cc1sc2nc(-c3ccccn3)c(/C=N/N=C(N)N)n2c1C
[1]
  GI50: 5.56 µM
  TGI: 16.1 µM
[2]
  GI50: 1.92 µM
  TGI: 4.39 µM
[3]
  GI50: 4 µM
  TGI: 9.13 µM
[10]
  GI50: > 100 µM
  TGI: > 100 µM
[4]
  GI50: 4.48 µM
  TGI: > 100 µM
[5]
  GI50: 7.52 µM
  TGI: 19.5 µM
[6]
  GI50: 4.23 µM
  TGI: 12.1 µM
[7]
  GI50: 10.7 µM
  TGI: 27 µM
[9]
  GI50: 4.98 µM
  TGI: 13.5 µM

## CN(C)CCCNC(=O)c1cc2c3ccccc3[nH]c2c2ncccc12
[1]
  GI50: 13.2 µM
  TGI: 39 µM
[2]
  GI50: 9.33 µM
  TGI: 25.1 µM
[3]
  GI50: 14.3 µM
  TGI: 31.1 µM
[10]
  GI50: 14.5 µM
  TGI: 67.1 µM
[4]
  GI50: 16 µM
  TGI: 41.7 µM
[5]
  GI50: 17.4 µM
  TGI: 85.3 µM
[6]
  GI50: 7.42 µM
  TGI: 32.8 µM
[7]
  GI50: 15 µM
  TGI: 32.4 µM
[8]
  GI50: 10.8 µM
  TGI: 23.4 µM
[9]
  GI50: 11.6 µM
  TGI: 58.5 µM

## NC1=CC(=O)C(=O)c2cccnc21
[1]
  GI50: 14.2 µM
  TGI: 27.2 µM
[2]
  GI50: 4.73 µM
  TGI: 18.7 µM
[3]
  GI50: 2.6 µM
  TGI: 6.38 µM
[4]
  GI50: 2.8 µM
  TGI: 9.08 µM
[5]
  GI50: 5.86 µM
  TGI: 21.6 µM
[6]
  GI50: 2.65 µM
  TGI: 9.91 µM
[7]
  GI50: 2.23 µM
  TGI: 6.7 µM
[8]
  GI50: 14.7 µM
  TGI: 28.4 µM
[9]
  GI50: 5.37 µM
  TGI: 23.4 µM

## Cn1cc(-c2csc(-c3cn(CCN4CCOCC4)c4ccc(F)cc34)n2)c2cccnc21
[1]
  GI50: 2.58 µM
  TGI: 7.23 µM
[2]
  GI50: 2.18 µM
  TGI: 6.21 µM
[3]
  GI50: 3.01 µM
  TGI: 12.3 µM
[10]
  GI50: 2.29 µM
  TGI: 6.9 µM
[4]
  GI50: 2.52 µM
  TGI: 6.87 µM
[5]
  GI50: 3.93 µM
  TGI: > 100 µM
[6]
  GI50: 1.68 µM
  TGI: 4.96 µM
[7]
  GI50: 4.54 µM
  TGI: 28.9 µM
[8]
  GI50: 3.42 µM
  TGI: 16.4 µM
[9]
  GI50: 2.29 µM
  TGI: 8.09 µM
